Source: patent publication US6537545B1, “Use of corneal hardening agents in enzymeorthokeratology” (ISTA Pharmaceuticals, Inc., priority 1998, dated 2003)

Assays:
Type in all cases: in vivo
[1] = system: Dutch Belted rabbit eyes; assay: Histopathology of eyes after corneal scraping (Example 2); settings: one of the four glyceraldehyde treated eyes; presumably due to scraping
Procedure: The study animals were sacrificed on Study Day 74 with an intravenous injection of pentobarbital (2 mg/kg). Eyes from the study animals were enucleated immediately post-sacrifice and placed in labeled tubes containing approximately 5 mL of half-strength Kamovsky's fixative (2.5% glutaraldehyde, 2.5% paraformaldehyde, 2.5 mM CaCl2, 100 mM Na Cacodylate, pH 7.4) for approximately 1 hour. The eyes were removed and small windows (1×3 mm) were made in the cornea/iris to allow penetration of the fixative to the vitreous. The eyes were then placed in 25 mL of fresh fixative. The fixed eyes were then sent to Consolidated Veterinary Diagnostics, Inc. (West Sacramento, Calif.) where they underwent routine tissue processing, sectioning, and staining with hematoxylin/eosin. They were examined by a Board Certified Veterinary Pathologist.
The eyes which had undergone corneal scraping and a subsequent healing period were sent to Consolidated Veterinary Diagnostics for tissue processing and pathologic interpretation. In toto, 4 eyes from the glyceraldehyde treated group and 2 eyes from the BSS group were evaluated. […] This description would imply a response to injury (presumably the scraping).

[2] = system: eyes of non-sighted human patients; assay: Safety of enzymatic corneaplasty with hyaluronidase and topical 3% glyceraldehyde in two non-sighted human patients (Example 4)
Procedure: The two patients (Nos. 1108 and 1105) each received an intrastromal injection of 500 IU of hyaluronidase. […] Patient 1108 wore the lenses for 21 days while patient 1105 wore the lenses for 50 days.
Patient 1108 was treated according to the protocol outline above. After the 21 day lens wearing period had expired, the patient was instructed to apply two (2) drops of the 3% glyceraldehyde solution four times per day. The application of 3% glyceraldehyde continued for thirty-six (36) days after lens wear had ceased. Following termination of the 3% glyceraldehyde treatment, the patient was examined occasionally and the final examination was administered 126 days following the cessation of glyceraldehyde treatment.
This patient was treated as described above and wore the RGP lenses for 50 days. Unlike patient 1108, patient 1105 was treated with the 3% glyceraldehyde solution for one (1) month while the patient was wearing the RGP contact lenses. The 3% glyceraldehyde solution was applied four times per day for a total period of 43 days.

[3] = system: eyes of non-sighted human patients; assay: Safety of enzymatic corneaplasty with hyaluronidase and topical 3% glyceraldehyde in seven non-sighted human patients (Example 6); settings: 500 IU hyaluronidase, lenses, 3% glyceraldehyde 2 drops 4 times per day, 28 days
Procedure: The methodology used in this study was similar to that discussed in Example 4. Subjects were injected intrastromally with 500 IU of a hyaluronidase solution on the first day of the study following an initial eye examination. The injected enzyme was allowed to digest the corneal substrate for seven (7) days. At that time contact lenses were fitted to the treated eyes of the subjects. The subjects wore the lenses for another seven days at which time the topical application of the 3% glyceraldehyde solution was first applied. The 3% glyceraldehyde solution was applied at 2 drops, 4 times per day for the following 28 days. At the end of the 28 days the contact lenses were removed and the glyceraldehyde treatments were ceased.
The subjects were examined and data was recorded throughout the treatment period and following the cessation of treatment. […] The only apparent negative effects of the treatment were incidents of edema and minor manifestations of SPK. These negative manifestations resolved favorably for most patients.

[4] = system: eyes of myopic human subjects; assay: Mild myopia study, group I: 50 IU hyaluronidase, corrective lenses, 3% glyceraldehyde (Example 9)
Excerpt: Given the favorable results obtained in Example 8, an additional study was undertaken to test the safety and efficacy of the method of the present invention using a larger group of subjects. In this study, a group of subjects were selected and randomly separated into three test groups to test the safety and efficacy of using hyaluronidase and a glyceraldehyde solution for treating subjects with sub-optimal visual acuity. Groups one and two received an intrastromal injection of hyaluronidase (50 and 500 IU, respectively), while group three received a control injection of saline.
Following a two week incubation period after the injection, the three groups were fitted with corrective lenses to optimize the visual acuity of the subjects. The corrective lenses were left in place for a period of time sufficient to alter the shape of the subjects' eyes so as to achieve an optimal visual acuity. This period of time was generally 2 days in length. Once an acceptable visual acuity was achieved, the subjects in the three groups received a topical 3% glyceraldehyde solution in the form of ophthalmic drops four times per day while wearing the corrective lenses. The glyceraldehyde treatment was generally administered for one month. Lens wear occurred from 8 to 12 hours during the day.
At the end of the treatment period both the lens wear and the glyceraldehyde solution administration was terminated. The general health and visual acuity of the subjects was monitored from 3 to 5 months following treatment termination.
Before beginning the experimental protocol, test subjects were examined initially to establish a baseline from which the future results of the treatment were compared. For each subject a medical history was taken and a detailed examination of the eyes was also performed. The eyes of each subject were tested to determine: refraction cell count, intraocular pressure (IOP), pachymetry, corneal topography and corneal elasticity. A slit-lamp examination was also performed to establish the health of the eye. Also, the presence of any general or ocular discomfort of the subjects was noted.
Following the establishment of a baseline reading, group 1 subjects were administered a single intrastromal injection of 50 IU hyaluronidase prior to the orthokeratology treatment. Following 14 days of incubation, the subjects were fitted with corrective contact lenses for overnight wear. Subjects wore the corrective lenses night and day for a period of two (2) to seven (7) days or until visual 20/20 visual acuity was achieved. Subjects achieving an acceptable visual acuity (approximately 20/20) received an application of the topical 3% glyceraldehyde solution ophthalmic drops four times per day (8:00, 12:00, 16:00, and 20:00) for a period of 1 month in conjunction with daytime lens wear for stabilization. Lens wear lasted for 8 to 12 hours per day. The subjects were examined periodically during the glyceraldehyde treatment to monitor changes in the health of the treated eyes.
At the end of the treatment period, the stabilizing lens were removed and the administration of the 3% glyceraldehyde solution was terminated. Following termination of the treatment, the subjects were examined immediately after treatment was terminated, once a week for the first four weeks after termination, and then monthly to measure changes in the visual acuity of the treated eyes. The health of the eye was also monitored. Sequelae characterized by the appearance or worsening of serious ocular symptoms or slit-lamp findings observed during these examinations was assessed. The proportions of subjects with such findings were analyzed.

[5] = system: eyes of myopic human subjects; assay: Mild myopia study, group III: corrective lenses and 3% glyceraldehyde without hyaluronidase (Example 9); settings: no hyaluronidase; subject 011; three month follow-up point; baseline 20/20

SMILES: O=CC(O)CO (stereo not shown) [glyceraldehyde]
- pathologic finding in eyes after scraping and healing [1]: superficial scar in the corneal stroma and disruption of Bowman's membrane
- level of SPK after termination of lens wear while continuing 3% glyceraldehyde ([2]; patient 1105): observed to decrease
- level of superficial punctate keratopathy (SPK) during lens wear and 3% glyceraldehyde application ([2]; patient 1105, 500 IU hyaluronidase, RGP lenses 50 days, drops four times per day, 43 days): not observed to increase
- appearance of corneas at follow-up ([2]; patient 1105, 98 days post cessation of glyceraldehyde treatment): appeared normal
- appearance of corneas under slit-lamp biomicroscopy ([2]; patient 1105, within 48 hours of ceasing the 43 day glyceraldehyde treatment): appeared normal under slit-lamp biomicroscopy and were free of any SPK
- effects on the stroma or the endothelial cells during glyceraldehyde treatment ([2]; patient 1108, 500 IU hyaluronidase, lenses 21 days, then 3% glyceraldehyde 2 drops four times per day, 36 days): did not indicate any deleterious effects
- adverse reactions after completion of treatment ([2]; patient 1108, after the 36 day protocol up to final examination 126 days after cessation): Nor were there any adverse reactions observed
- overall observable negative results ([2]; two non-sighted human patients): no observable negative results
- negative effects of enzyme injection or glyceraldehyde application [3]: no significant negative effects
- overall effect on correction of visual acuity ([4]; glyceraldehyde treatment with injection of 50 IU of hyaluronidase): effective in facilitating the correction
- visual acuity at follow-up after end of treatment ([4]; subject 001, 5-month follow up, baseline 20/80): 20/40
- visual acuity at follow-up after end of treatment ([4]; subject 002, 4-month follow-up, baseline 20/300): 20/125
- visual acuity at follow-up after end of treatment ([4]; subject 007, 3-month follow-up, baseline 20/200): 20/50
- visual acuity at follow-up after end of treatment ([4]; subject 009, 3-month follow-up, baseline 20/200): 20/63
- visual acuity at follow-up ([4]; subject 010R, time not stated, baseline 20/80): 20/20
- visual acuity at follow-up after end of treatment ([4]; subject 015, 3-month follow-up, baseline 20/80): 20/25
- visual acuity at follow-up ([4]; subject 022R, 3-week followup, baseline 20/62): 20/80
- visual acuity at follow-up ([4]; subject 024R, time not stated, baseline 20/100): 20/40
- visual acuity at follow-up ([4]; subject 028, 2-month point, baseline 20/300): 20/125
- visual acuity at follow-up ([4]; subject 029, 2-month point, baseline 20/200): 20/40
- visual acuity at follow-up ([4]; subject 033, 2-month point, baseline 20/300): 20/125
- UVA at follow-up after end of treatment [5]: 20/40
